Source: patent US20230065953A1, “NOVEL HETEROARYL-TRIAZOLE COMPOUNDS AS PESTICIDES” (Bayer Aktiengesellschaft, priority 2019, published 2023)

Key:
Type in all cases: in vivo
[1] = tested on: green peach aphid (Myzus persicae); assay: Myzus persicae spray test; conditions: foliar, 120 h, Chinese cabbage leaf disks, after 5 days
How it was run: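 Percent mortality read 5 days after spraying, where 100% is total kill and 0% none. The spray contained compound in acetone plus dimethylformamide, diluted with 1000 ppm emulsifier water. It was applied to Brassica pekinensis leaf disks carrying mixed-instar green peach aphids.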

[2] = tested on: adult mosquitoes Aedes aegypti strain MONHEIM; assay: Aedes aegypti test (AEDSAE surface treatment & contact assay); conditions: 24 hours after contact, read-out: efficacy (mortality); for mortality at 4 mg/m2: surface concentration 4 mg/m^2, 30 min exposure; for mortality at 20 mg/m2: surface concentration 20 mg/m^2, 30 min exposure
How it was run: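 Test compound in acetone (2 mg/ml) with 2000 ppm rapeseed oil methyl ester was dried onto a glazed tile. Adult Aedes aegypti MONHEIM were exposed to the treated surface for 30 minutes. Percent mortality was scored 24 hours after contact.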

[3] = tested on: adult mosquitoes Anopheles funestus strain FUMOZ-R; assay: Anopheles funestus test (ANPHFU surface treatment & contact assay); conditions: 24 hours after contact, read-out: efficacy (mortality); for mortality at 20 mg/m2: surface concentration 20 mg/m^2, 30 min exposure; for mortality at 4 mg/m2: surface concentration 4 mg/m^2, 30 min exposure
Method: Anopheles funestus Test (ANPHFU Surface Treatment & Contact Assay) • Solvent: Aceton+2000 ppm rapeseed oil methyl ester (RME)
In order to produce a sufficient, active ingredient containing solution it is necessary to solve the test compound in the solvent-mix (acetone at 2 mg/ml/RME 2000 ppm). This solution is pipetted onto a glazed tile and after evaporation of the acetone, adult mosquitoes of the species Anopheles funestus strain FUMOZ-R (Hunt et al., Med. Vet. Entomol. 2005 September; 19(3): 271-275) are placed onto the dried surface. The exposure time is 30 minutes.
Mortality in percent (%) is determined 24 hours after contact of the insects to the treated surface. 100% mortality means that all tested insects are dead, whereas 0% means that no insect died.

[4] = tested on: fall armyworm larvae (Spodoptera frugiperda); assay: Spodoptera frugiperda spray test (maize leaf sections); conditions: 168 h
How it was run: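 Percent kill of Spodoptera frugiperda caterpillars read at day 7. Larvae placed on dried Zea mays leaf pieces previously sprayed with test preparation, made from acetone plus DMF and diluted with emulsifier-containing water (1000 ppm).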

[5] = tested on: larvae of the banded cucumber beetle (Diabrotica balteata); assay: Diabrotica balteata spray test; conditions: 168 h, 100 g/ha (=32 μg/well), wheat seeds, after 7 days, read-out: efficacy (seedling growth)
How it was run: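 Efficacy in % was read 7 days after infesting with 10-20 larvae per unit. Before infestation, 1-day-germinated wheat seedlings (5 per well) were sprayed with the active ingredient, formulated in acetone and dimethylformamide plus emulsifier and diluted with water containing emulsifier.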

[6] = tested on: adult flies Musca domestica strain WHO-N; assay: Musca domestica test (MUSCDO surface treatment & contact assay); conditions: 24 hours after contact, read-out: efficacy (mortality); for mortality at 4 mg/m2: surface concentration 4 mg/m^2, 30 min exposure; for mortality at 20 mg/m2: surface concentration 20 mg/m^2, 30 min exposure
How it was run: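 Percent kill read 24 h post-contact, after adult flies (strain WHO-N) spent 30 min on a glazed tile treated with test solution (acetone, 2 mg/ml, plus 2000 ppm rapeseed oil methyl ester) and dried.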

[7] = tested on: adult cat fleas (Ctenocephalides felis); assay: Ctenocephalides felis in-vitro contact test, adult cat flea; conditions: 5 μg/cm^2 (=500 g/ha), after 48 hours
How it was run: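 After 48 h of room-temperature exposure in tubes whose walls carried dried compound residue (5 μg/cm^2, from 900 ppm acetone solution), adult cat fleas (5-10 per tube) were heat-challenged at 45-50° C up to 5 min. Fleas unable to climb away were counted dead or moribund, expressed as % efficacy.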

[8] = tested on: adult engorged female ticks (Rhipicephalus microplus); assay: Rhipicephalus (Boophilus) microplus injection test; conditions: 168 h, egg deposition after 7 days, read-out: efficacy (infertile eggs); for pest or weed control at 0.004 mg: 4 μg/animal
How it was run: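 Five adult engorged female ticks each injected into the abdomen with 1 μL of compound in DMSO, then kept in a climate chamber. Fertile egg deposition assessed after 7 days, with unclear eggs held until hatching around 42 days; efficacy 100% means all eggs infertile, 0% all fertile.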

[9] = tested on: Rhipicephalus microplus larvae (strain Parkhurst, resistant against synthetic pyrethroids); assay: Rhipicephalus (Boophilus) microplus in-vitro contact test, larval cattle tick; conditions: 5 μg/cm^2 (=500 g/ha), after 48 hours, read-out: efficacy (larvae dead or moribund)
How it was run: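 Larvae exposed by contact to a dried acetone film on glass; a 900 ppm solution yields 5 μg/cm^2. Scoring after 48 h at 27° C. counts dead plus moribund larvae as efficacy.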

[10] = tested on: adult unfed cat fleas (Ctenocephalides felis); assay: Ctenocephalides felis oral test; conditions: 48 h
How it was run: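 About 20 adult unfed fleas fed through parafilm on cattle blood containing compound (DMSO stock diluted in blood), blood held at 37 °C and fleas at room temperature. Mortality (%) scored after 2 days.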

[11] = tested on: green peach aphid (Myzus persicae); assay: Myzus persicae oral test; conditions: 120 h
How it was run: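 Compound was dissolved in acetone, diluted with water and mixed into IPL41 insect medium with sugar under a parafilm seal. A mixed aphid population fed through the parafilm, and mortality (%) was scored after 5 days.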

[12] = tested on: adult brown dog ticks (Rhipicephalus sanguineus); assay: Rhipicephalus sanguineus in-vitro contact test with adult brown dog ticks; conditions: 5 μg/cm^2 (=500 g/ha), after 48 hours, read-out: efficacy (ticks dead or moribund)
Method: Rhipicephalus sanguineus—In-Vitro Contact Tests with Adult Brown Dog Ticks
9 mg compound is solved in 1 mL acetone and diluted with acetone to the desired concentration. 250 μL of the test solution is filled in 25 mL glass test tubes and homogeneously distributed on the inner walls by rotation and tilting on a shaking device (2 h at 30 rpm). With a compound concentration of 900 ppm, an inner surface of 44.7 cm^2 and a homogeneous distribution, a dose of 5 μg/cm^2 is achieved.
After the solvent has evaporated, each test tube is filled with 5-10 adult brown dog ticks (Rhipicephalus sanguineus), closed with a perforated lid and incubated in a lying position at room temperature and relative humidity. After 48 hours efficacy is determined. The ticks are patted on the ground of the tubes and are incubated on a heating plate at 45-50° C. for at most 5 minutes. Immotile or uncoordinated moving ticks, which are not able to escape the heat by climbing upwards, are marked as dead or moribund.
An efficacy of 100% means all ticks are dead or moribund; 0% means no ticks are dead or moribund.

[13] = tested on: brown planthopper (Nilaparvata lugens); assay: Nilaparvata lugens spray test; conditions: 96 h, rice plants, after 4 days
Method: Nilaparvata lugens—Spray Test • Solvent: 78.0 parts by weight of acetone • 1.5 parts by weight of dimethylformamide • Emulsifier: alkylarylpolyglycol ether
To produce a suitable preparation of active compound, 1 part by weight of active compound is mixed with the stated amount of solvents and is diluted with water, containing an emulsifier concentration of 1000 ppm, to the desired concentration. Further test concentrations are prepared by dilution with emulsifier containing water.
Rice plants (Oryza sativa) are sprayed with a preparation of the active ingredient of the desired concentration and the plants are infested with the brown planthopper (Nilaparvata lugens).
After 4 days mortality in % is determined. 100% means all planthoppers have been killed and 0% means none of the planthoppers have been killed.

[14] = tested on: larvae of the southern green stink bug (Nezara viridula); assay: Nezara viridula spray test; conditions: in Hordeum vulgare, 96 h
How it was run: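 Mortality (%) of stink bug larvae on treated barley (Hordeum vulgare) was scored 4 days after infestation. Test solutions came from an acetone/DMF concentrate diluted with water containing 1000 ppm emulsifier and were sprayed onto plants before larvae were added.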

Structure (SMILES)	mortality at 100 g/ha [1] [%]	mortality at 4 mg/m2 [2] [%]	mortality at 20 mg/m2 [2] [%]	mortality at 20 mg/m2 [3] [%]	mortality at 100 g/ha [4] [%]	pest or weed control at 32 µg/disc, 100 g/ha [5] [%]	mortality at 4 mg/m2 [6] [%]	mortality at 20 mg/m2 [6] [%]	efficacy (fleas dead or moribund) [7] [%]	pest or weed control at 0.004 mg [8] [%]	pest or weed control at 5 µg/cm2 [9] [%]	mortality at 100 ppm [10] [%]	mortality at 4 ppm [11] [%]	pest or weed control at 5 µg/cm2, 500 g/ha [12] [%]	mortality at 4 mg/m2 [3] [%]	pest or weed control at 0.02 mg ([8]; 20 μg/animal) [%]	mortality at 100 g/ha ([13]; 100 g/ha) [%]	mortality at 500 g/ha [13] [%]	mortality at 500 g/ha [14] [%]	mortality at 100 g/ha [14] [%]
CC(NC(=O)c1cc(OC(F)(F)F)cc(C2(C#N)CC2)c1)c1ncnn1-c1ncc(C#N)s1 (racemic) [I-87, (rac)-3-(1-cyanocyclopropyl)-N-{1-[1-(5-cyano-1,3-thiazol-2-yl)-1H-1,2,4-triazol-5-yl]ethyl}-5-(trifluoromethoxy)benzamide]	100	80 to 100	80 to 100	80 to 100	100	100	90 to 100	80 to 100	–	–	–	–	–	–	–	–	–	–	–	–
CC(NC(=O)c1cc(OC(F)(F)F)cc(C(F)F)c1)c1ncnn1-c1ncc(C#N)s1 (centres unmarked) [I-26]	–	–	80 to 100	80 to 100	100	100	90 to 100	80 to 100	100	100	100	100	100	–	–	–	–	–	–	–
CC(NC(=O)c1cc(OC(F)F)cc(OC(F)F)c1)c1ncnn1-c1ncc(C#N)s1 (centres unmarked) [I-31]	90	80 to 100	80 to 100	–	100	100	90 to 100	80 to 100	–	100	100	100	100	100	80 to 100	–	–	–	–	–
C[C@H](NC(=O)c1cc(Cl)cc(S(C)(=O)=O)c1)c1ncnn1-c1ncc(C#N)s1 [I-36]	–	80 to 100	80 to 100	–	100	100	–	–	100	100	90	100	100	–	80 to 100	100	–	–	–	–
C[C@H](NC(=O)c1cc(C(F)(F)F)cc(C(F)(F)F)c1)c1ncnn1-c1ncc(C(=O)N(C)C)s1 [I-64]	100	–	80 to 100	80 to 100	100	100	90 to 100	80 to 100	100	–	100	–	–	100	–	–	90	90	100	–
C[C@H](NC(=O)c1cc(Cl)cc(C(F)(F)Cl)c1)c1ncnn1-c1ncc(C#N)s1 [I-85]	100	80 to 100	80 to 100	80 to 100	100	100	90 to 100	80 to 100	–	–	–	–	–	–	80 to 100	–	–	–	–	–
C[C@H](NC(=O)c1cc(OC(F)(F)F)cc(C2CC2)c1)c1ncnn1-c1ncc(C(=O)N(C)C)s1 [I-89]	100	–	80 to 100	–	100	100	–	80 to 100	100	–	100	–	–	80	–	–	–	100	100	–
Cc1nc([C@H](C)NC(=O)c2cc(OC(F)(F)F)cc(C3CC3)c2)n(-c2ncc(C#N)s2)n1 [I-91]	90	–	80 to 100	–	100	100	90 to 100	80 to 100	–	–	100	–	–	100	–	–	–	100	100	–
C[C@H](NC(=O)c1cc(Br)cc(OC(F)(F)F)c1)c1ncnn1-c1ncc(C(=O)N(C)C)s1 [I-118]	–	–	80 to 100	80 to 100	100	100	–	80 to 100	–	–	–	–	–	–	80 to 100	–	–	–	100	100
C[C@H](NC(=O)c1cc(OC(F)F)cc(SC(F)F)c1)c1ncnn1-c1ncc(C#N)s1 [I-130]	90	–	80 to 100	80 to 100	100	100	90 to 100	80 to 100	–	–	–	–	–	–	–	–	–	–	100	–
C[C@H](NC(=O)c1cc(OC(F)(F)F)cc(C2(C#N)CC2)c1)c1ncnn1-c1ncc(C#N)s1 [I-142]	90	80 to 100	80 to 100	80 to 100	100	100	90 to 100	80 to 100	–	–	–	–	–	–	–	–	–	–	100	–
